The values that follow are results of earlier work, collected in PMC7905424 (Biochemistry. Biokhimiia, 2021).

For data set [1], the system named is pro-inflammatory cytokine IL-6. The settings on record: COVID-19 patients.

Like-named read-outs stand apart in the source and are kept apart here.

On to ACE2, for which the Kd was 1.2 nM at SARS-CoV-2 S protein (read-out: Kd for ACE2, lower end of literature range) and 95 nM on SARS-CoV-2 S protein (read-out: Kd for ACE2, upper end of literature range).
As to low-molecular-weight heparin, the “content of the pro-inflammatory cytokine IL-6” value in data set [1] is reported as “pronounced decrease”.
